One experiment relates to PSAPP mice. The conditions noted are these: 250 mg/kg/day orally, 5 weeks; cited from earlier work.
Experiment [1] addresses T1, purified recombinant human BACE1 (Homo sapiens, UniProt P56817).
T1 construct: purchased R&D systems
Description: In vitro fluorometric BACE1 activity assay. It is filed as biochemical. The following applies: increasing amounts of compound, 2 hours. On the procedure:
A fluorometric β-secretase activity kit was used for detecting BACE1 activity in vitro. Reaction was done according to the manufacturer's instructions with slight modifications. Briefly, 1 μg of purified recombinant human BACE1 (R&D systems) was resuspended in 10 μl of 1× cell extraction buffer (R&D systems) and incubated with EDANS/DABCYL-[…] substrate peptide in the absence or presence of indicated account of CP-113,818 for 2 hours. Released EDANS fluorescence was measured by a fluorescent plate reader (Analyst AD, LJL Biosystems). As a negative control, a specific β-secretase inhibitor, GL-189 (Calbiochem) was added to one of the samples with the indicated concentration.

For the next experiment, the system named is γ-secretase. The experiment in a line: In vitro generation of APP intracellular domain (AICD), γ-secretase activity assay on CHO cell membrane fractions. The format is biochemical, Chinese hamster. The conditions noted are these: CHO cell (overexpressing APP) membrane fractions, increasing amounts of compound. On the procedure: Membrane preparation and in vitro generation of AICD were performed as described (Gu et al., 2001; Kim et al., 2002). P2 membrane fractions were prepared from CHO cells overexpressing wild type APP and resuspended in Buffer H (20 mM HEPES, 150 mM NaCl, 10% glycerol, 5 mM EDTA, pH 7.4) with protease inhibitors. In vitro cleavage experiments were performed by incubating the membrane fractions at 0° C. or 37° C. for 1 hour with the indicated amounts of CP-113,818. As a negative control, a specific γ-secretase inhibitor, L-685,458, was added to one of the samples.

Another experiment has as its system CHO cells. The following applies: 4 μM; cited from earlier work.
The test system of another experiment is Tg2576 mice. The following applies: 12 month-old female Tg2576 mice, 3 weeks; cited from earlier work.

Where a SMILES comes first, the peptide text is derived from it. [ ]: non-standard residue; d: D form. Sta = CC(C)C[C@H](N)[C@@H](O)CC(=O)O

T1 sequence (P56817 46-501): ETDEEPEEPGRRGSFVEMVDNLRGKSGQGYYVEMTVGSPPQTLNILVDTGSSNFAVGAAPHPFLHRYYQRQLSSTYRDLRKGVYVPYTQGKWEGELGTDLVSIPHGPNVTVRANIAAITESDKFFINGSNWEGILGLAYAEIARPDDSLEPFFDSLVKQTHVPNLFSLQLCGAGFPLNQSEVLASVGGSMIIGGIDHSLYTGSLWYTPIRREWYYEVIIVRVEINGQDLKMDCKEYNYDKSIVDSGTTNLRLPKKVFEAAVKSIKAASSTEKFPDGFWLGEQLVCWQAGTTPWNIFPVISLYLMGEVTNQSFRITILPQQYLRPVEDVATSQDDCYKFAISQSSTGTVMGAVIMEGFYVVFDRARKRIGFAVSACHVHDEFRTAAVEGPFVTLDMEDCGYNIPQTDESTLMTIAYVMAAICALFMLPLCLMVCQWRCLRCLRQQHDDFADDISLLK

`O=C(O)c1ccc(CCN2CCN(C/C=C/c3ccc(Cl)cc3)CC2)cc1` [BM15.766]: in the experiment on PSAPP mice, the “reduction of amyloid load” value is 53%, the “reduction of formic acid-extracted Aβ40” value was 58% and the “reduction of formic acid-extracted Aβ42” value is recorded as 48%. Regarding `CC(C)C[C@H](NC(=O)[C@H](CC(N)=O)NC(=O)[C@@H](NC(=O)[C@@H](N)CCC(=O)O)C(C)C)[C@@H](O)CC(=O)N[C@H](C(=O)N[C@@H](C)C(=O)N[C@@H](CCC(=O)O)C(=O)N[C@@H](Cc1ccccc1)C(N)=O)C(C)C` [GL-189] (H-EVN[Sta]VAEF-NH2), in experiment [1], the “effect on BACE1 activity in vitro” value was “significantly reduces BACE1 activity”. Turning to `CC(C)C[C@H](NC(=O)[C@H](Cc1ccccc1)C[C@@H](O)[C@H](Cc1ccccc1)NC(=O)OC(C)(C)C)C(=O)N[C@@H](Cc1ccccc1)C(N)=O` [L-685,458], the “effect on γ-secretase activity (AICD generation) in vitro” value in the experiment with γ-secretase is “inhibits APP intracellular domain (AICD) generation”.

Consider `CC(C)c1cc(C(C)C)c(CC(=O)NS(=O)(=O)Oc2c(C(C)C)cccc2C(C)C)c(C(C)C)c1` [avasimibe], for which the “inhibition of Aβ generation” value with CHO cells was “approximately 60%”.

As for `CC[C@H](C)C(=O)O[C@H]1C[C@@H](C)C=C2C=C[C@H](C)[C@H](CC[C@@H]3C[C@@H](O)CC(=O)O3)[C@H]21` [lovastatin], the “Aβ pathology in female animals” value with Tg2576 mice is on record as “increasing Aβ pathology”.

Source of the values: US20050118226A1, “Methods for treating ACAT-related diseases” (priority 2003, published 2005).
